From US8569467B2, “C-glycoside compounds, and method for preparing C-glycoside compounds” (Ecole Nationale Supérieure de Chimie de Rennes, priority 2008, dated 2013)
“And” between values parts separate entries of the source, which are not always exact repeats. Identical values can stand only once.

Experiments:
[1] = Effect on the cloud temperature of the reference surfactant C6E2; assay type: physicochemical
Method: Finally, the effects of various C-glycoside compounds obtained according to the invention on the cloud temperature of a surfactant were tested in order to evaluate the advantage thereof for the stabilisation of the formulations.
The surfactant taken as a reference is C6E2, diethylene glycol monohexylether.

[2] = Tensiometric measurements of CMC/MAC and interface tension; assay type: physicochemical; conditions: tensiometric measurement
Text: Tensiometric measurements, namely the measurement of the CMC (Critical Micelle Concentration) and the MAC (Minimal Aggregation Concentration) were made on various compounds obtained according to the invention.

[3] = C6E2 (1% weight) + product (1% weight)
[4] = C6E2 (1% weight) + product (10% weight)

Row | Structure (SMILES) | Cloud temp ([1]; C6E2 (1% weight) alone, reference surfactant) [°C] | CMC*/MAC** (Critical Micelle Concentration / Minimum Aggregation Concentration) [2] [mM] | γCMC/MAC*** (interface tension at the CMC/MAC) [2] | Cloud temp [1, 3] [°C] | Cloud temp [1, 4] [°C]
1 | CCCCCCOCCOCCO [Example C6E2, diethylene glycol monohexylether, reference compound] | 34 | – | – | – | –
2 | CCCCCC(=O)CC1O[C@H](CO)[C@H](O)[C@H](O)[C@H]1O (stereo partly shown) [1-C-(Galactosyl)-heptan-2-one] | – | 17.5 | 30 Mn · m^−1 | – | –
3 | CCCCCC(=O)C[C@@H]1OC(CO)[C@@H](O)C(O)C1O (stereo partly shown) [1-C-(Glucosyl)-heptan-2-one, 1-(C-Glucosyl)-heptan-2-one] | – | – | 30 Mn · m^−1 and 28 Mn · m^−1 | 62 | –
4 | C=CCC(C)(O)C[C@@H]1OC(CO)[C@@H](O[C@@H]2OC(CO)[C@H](O)C(O)C2O)C(O)C1O (single isomer, unassigned) [5-C-(Lactosyl)-4-methylpent-1-ene-4-ol, 5-(C-Lactosyl)-4-methylpent-1-en-4-ol] | – | – | – | – | 39
5 | C=CCC(C)(O)CC1O[C@H](CO)[C@H](O)[C@H](O)[C@H]1O (stereo partly shown) [5-C-(Galactosyl)-4-methylpent-1-ene-4-ol] | – | – | – | – | 42
6 | CCCCCC(=O)CC1O[C@H](CO)[C@@H](O[C@@H]2O[C@H](CO)[C@H](O)[C@H](O)[C@H]2O)[C@H](O)[C@H]1O (stereo partly shown) [1-C-(Lactosyl)-heptan-2-one] | – | 17 | 30 Mn · m^−1 | 58 | –
7 | C=CCC(C)(O)C[C@@H]1OC(CO)[C@@H](O)C(O)C1O (single isomer, unassigned) [5-C(Glucosyl)-4-methylpent-1-ene-4-ol, 5-(C-Glucosyl)-4-methylpent-1-ene-4-ol] | – | 350 | 34 Mn · m^−1 | – | 44
